Measured values from patent US6872690B2, “Herbicidal 2-alkynyl-pyri (mi) dines” (WYETH, priority 2001, dated 2005).

How the values were obtained:
Format in all cases: in vivo
[1] = tested on: Abutilon theophrasti; assay: Pre-emergence test; conditions: 3 weeks after treatment
Method in brief: (§1)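 Seeds sown in horticultural loam; compound in acetone containing 0.4% wetting agent, then diluted in water; formulation sprayed onto the soil surface at 900 L/ha; rates of 0.013, 0.025, 0.100 and 0.400 kg/ha; pots rated after 2–4 weeks against untreated controls.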

[2] = tested on: Ipomoea hederacea; assay: Pre-emergence test; conditions: 3 weeks after treatment
Method in brief: as §1

[3] = tested on: Echinochloa crus-galli; assay: Pre-emergence test; conditions: 3 weeks after treatment
Method in brief: as §1

[4] = tested on: Cassia obtusifolia; assay: Pre-emergence test; conditions: 3 weeks after treatment
Method in brief: as §1

[5] = tested on: Ambrosia artemisifolia; assay: Pre-emergence test; conditions: 3 weeks after treatment
Method in brief: as §1

[6] = tested on: Zea mays; assay: Pre-emergence test; conditions: 3 weeks after treatment
Method in brief: as §1

[7] = tested on: Alopecurus myosuroides; assay: Pre-emergence test; conditions: 3 weeks after treatment
Method in brief: as §1

[8] = tested on: Setaria viridis; assay: Pre-emergence test; conditions: 3 weeks after treatment
Method in brief: as §1

[9] = tested on: Glycine max; assay: Pre-emergence test; conditions: 3 weeks after treatment
Method in brief: as §1

[10] = tested on: Matricaria inodora; assay: Pre-emergence test; conditions: 3 weeks after treatment
Method in brief: as §1

[11] = tested on: Triticum aestivum; assay: Pre-emergence test; conditions: 3 weeks after treatment
Method in brief: as §1

[12] = tested on: Abutilon theophrasti; assay: Post-emergence herbicidal activity test; conditions: 2-4 weeks after treatment
Method in brief: (§2)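 Sprayed post-emergence at about 0.025 to 0.4 kg per hectare per pot, using water-diluted acetone solutions, then assessed by visual rating after 2 to 4 weeks in the greenhouse.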

[13] = tested on: Ipomoea hederacea; assay: Post-emergence herbicidal activity test; conditions: 2-4 weeks after treatment
Method in brief: as §2

[14] = tested on: Echinochloa crus-galli; assay: Post-emergence herbicidal activity test; conditions: 2-4 weeks after treatment
Method in brief: as §2

[15] = tested on: Ambrosia artemisifolia; assay: Post-emergence herbicidal activity test; conditions: 2-4 weeks after treatment
Method in brief: as §2

[16] = tested on: Zea mays; assay: Post-emergence herbicidal activity test; conditions: 2-4 weeks after treatment
Method in brief: as §2

[17] = tested on: Alopecurus myosuroides; assay: Post-emergence herbicidal activity test; conditions: 2-4 weeks after treatment
Method in brief: as §2

[18] = tested on: Setaria viridis; assay: Post-emergence herbicidal activity test; conditions: 2-4 weeks after treatment
Method in brief: as §2

[19] = tested on: Glycine max; assay: Post-emergence herbicidal activity test; conditions: 2-4 weeks after treatment
Method in brief: as §2

[20] = tested on: Matricaria inodora; assay: Post-emergence herbicidal activity test; conditions: 2-4 weeks after treatment
Method in brief: as §2

[21] = tested on: Triticum aestivum; assay: Post-emergence herbicidal activity test; conditions: 2-4 weeks after treatment
Method in brief: as §2

Cc1cc(C#Cc2ccc(F)cc2)nc(Oc2cc(C(F)(F)F)nn2C)c1 [Example 2, 4-methyl-6-(4-fluorophenylethynyl)-2-(1-methyl-3-trifluoromethylpyrazol-5-yloxy)-pyridine]
Assessment (pre-emergence application) ABUTH ([1]; 0.013 kg/ha): 0 (0-No effect)
Assessment (pre-emergence application) ABUTH ([1]; 0.025 kg/ha): 1 (1-Trace effect)
Assessment (pre-emergence application) ABUTH ([1]; 0.100 kg/ha): 2 (2-Slight effect)
Assessment (pre-emergence application) ABUTH ([1]; 0.400 kg/ha): 3 (3-Moderate effect)
Assessment (pre-emergence application) IPOHE ([2]; 0.013 kg/ha): 0 (0-No effect)
Assessment (pre-emergence application) IPOHE ([2]; 0.025 kg/ha): 1 (1-Trace effect)
Assessment (pre-emergence application) IPOHE ([2]; 0.100 kg/ha): 2 (2-Slight effect)
Assessment (pre-emergence application) IPOHE ([2]; 0.400 kg/ha): 6 (6-Herbicidal effect)
Assessment (pre-emergence application) ECHCG ([3]; 0.013 kg/ha): 1 (1-Trace effect)
Assessment (pre-emergence application) ECHCG ([3]; 0.025 kg/ha): 2 (2-Slight effect)
Assessment (pre-emergence application) ECHCG ([3]; 0.100 kg/ha): 6 (6-Herbicidal effect)
Assessment (pre-emergence application) ECHCG ([3]; 0.400 kg/ha): 7 (7-Good herbicidal effect)
Assessment (pre-emergence application) CASOB ([4]; 0.013 kg/ha): 0 (0-No effect)
Assessment (pre-emergence application) CASOB ([4]; 0.025 kg/ha): 1 (1-Trace effect)
Assessment (pre-emergence application) CASOB ([4]; 0.100 kg/ha): 3 (3-Moderate effect)
Assessment (pre-emergence application) CASOB ([4]; 0.400 kg/ha): 7 (7-Good herbicidal effect)
Assessment (pre-emergence application) MBEL ([5]; 0.013 kg/ha): 0 (0-No effect)
Assessment (pre-emergence application) MBEL ([5]; 0.025 kg/ha): 2 (2-Slight effect)
Assessment (pre-emergence application) MBEL ([5]; 0.100 kg/ha): 6 (6-Herbicidal effect)
Assessment (pre-emergence application) MBEL ([5]; 0.400 kg/ha): 9 (9-Complete kill)
Assessment (pre-emergence application) ZEAMX ([6]; 0.013 kg/ha): 0 (0-No effect)
Assessment (pre-emergence application) ZEAMX ([6]; 0.025 kg/ha): 0 (0-No effect)
Assessment (pre-emergence application) ZEAMX ([6]; 0.100 kg/ha): 1 (1-Trace effect)
Assessment (pre-emergence application) ZEAMX ([6]; 0.400 kg/ha): 2 (2-Slight effect)
Assessment (pre-emergence application) ALOMY ([7]; 0.013 kg/ha): 1 (1-Trace effect)
Assessment (pre-emergence application) ALOMY ([7]; 0.025 kg/ha): 2 (2-Slight effect)
Assessment (pre-emergence application) ALOMY ([7]; 0.100 kg/ha): 5 (5-Definite injury)
Assessment (pre-emergence application) ALOMY ([7]; 0.400 kg/ha): 8 (8-Approaching complete kill)
Assessment (pre-emergence application) SETVI ([8]; 0.013 kg/ha): 3 (3-Moderate effect)
Assessment (pre-emergence application) SETVI ([8]; 0.025 kg/ha): 4 (4-Injury)
Assessment (pre-emergence application) SETVI ([8]; 0.100 kg/ha): 8 (8-Approaching complete kill)
Assessment (pre-emergence application) SETVI ([8]; 0.400 kg/ha): 9 (9-Complete kill)
Assessment (pre-emergence application) GLXMA ([9]; 0.013 kg/ha): 0 (0-No effect)
Assessment (pre-emergence application) GLXMA ([9]; 0.025 kg/ha): 1 (1-Trace effect)
Assessment (pre-emergence application) GLXMA ([9]; 0.100 kg/ha): 2 (2-Slight effect)
Assessment (pre-emergence application) GLXMA ([9]; 0.400 kg/ha): 3 (3-Moderate effect)
Assessment (pre-emergence application) MATIN ([10]; 0.013 kg/ha): 1 (1-Trace effect)
Assessment (pre-emergence application) MATIN ([10]; 0.025 kg/ha): 5 (5-Definite injury)
Assessment (pre-emergence application) MATIN ([10]; 0.100 kg/ha): 9 (9-Complete kill)
Assessment (pre-emergence application) MATIN ([10]; 0.400 kg/ha): 9 (9-Complete kill)
Assessment (pre-emergence application) TRZWA ([11]; 0.013 kg/ha): 0 (0-No effect)
Assessment (pre-emergence application) TRZWA ([11]; 0.025 kg/ha): 0 (0-No effect)
Assessment (pre-emergence application) TRZWA ([11]; 0.100 kg/ha): 2 (2-Slight effect)
Assessment (pre-emergence application) TRZWA ([11]; 0.400 kg/ha): 4 (4-Injury)
Post-emergence application ABUTH ([12]; 0.025 kg/ha): 2 (2-Slight effect)
Post-emergence application ABUTH ([12]; 0.100 kg/ha): 6 (6-Herbicidal effect)
Post-emergence application ABUTH ([12]; 0.400 kg/ha): 8 (8-Approaching complete kill)
Post-emergence application IPOHE ([13]; 0.025 kg/ha): 7 (7-Good herbicidal effect)
Post-emergence application IPOHE ([13]; 0.100 kg/ha): 7 (7-Good herbicidal effect)
Post-emergence application IPOHE ([13]; 0.400 kg/ha): 9 (9-Complete kill)
Post-emergence application ECHCG ([14]; 0.025 kg/ha): 3 (3-Moderate effect)
Post-emergence application ECHCG ([14]; 0.100 kg/ha): 4 (4-Injury)
Post-emergence application ECHCG ([14]; 0.400 kg/ha): 8 (8-Approaching complete kill)
Post-emergence application AMBEL ([15]; 0.025 kg/ha): 2 (2-Slight effect)
Post-emergence application AMBEL ([15]; 0.100 kg/ha): 5 (5-Definite injury)
Post-emergence application AMBEL ([15]; 0.400 kg/ha): 7 (7-Good herbicidal effect)
Post-emergence application ZEAMX ([16]; 0.025 kg/ha): 1 (1-Trace effect)
Post-emergence application ZEAMX ([16]; 0.100 kg/ha): 2 (2-Slight effect)
Post-emergence application ZEAMX ([16]; 0.400 kg/ha): 2 (2-Slight effect)
Post-emergence application ALOMY ([17]; 0.025 kg/ha): 2 (2-Slight effect)
Post-emergence application ALOMY ([17]; 0.100 kg/ha): 3 (3-Moderate effect)
Post-emergence application ALOMY ([17]; 0.400 kg/ha): 5 (5-Definite injury)
Post-emergence application SETVI ([18]; 0.025 kg/ha): 4 (4-Injury)
Post-emergence application SETVI ([18]; 0.100 kg/ha): 7 (7-Good herbicidal effect)
Post-emergence application SETVI ([18]; 0.400 kg/ha): 9 (9-Complete kill)
Post-emergence application GLXMA ([19]; 0.025 kg/ha): 4 (4-Injury)
Post-emergence application GLXMA ([19]; 0.100 kg/ha): 5 (5-Definite injury)
Post-emergence application GLXMA ([19]; 0.400 kg/ha): 7 (7-Good herbicidal effect)
Post-emergence application MATIN ([20]; 0.025 kg/ha): 2 (2-Slight effect)
Post-emergence application MATIN ([20]; 0.100 kg/ha): 5 (5-Definite injury)
Post-emergence application MATIN ([20]; 0.400 kg/ha): 8 (8-Approaching complete kill)
Post-emergence application TRZWA ([21]; 0.025 kg/ha): 2 (2-Slight effect)
Post-emergence application TRZWA ([21]; 0.100 kg/ha): 2 (2-Slight effect)
Post-emergence application TRZWA ([21]; 0.400 kg/ha): 3 (3-Moderate effect)
